Measured values published in ChEMBL document CHEMBL1909588, “Synthesis and in vitro antitubercular evaluation of novel sansanmycin derivatives” (2011).
Converted amounts (≈) assume the structure as drawn.

What follows are compounds tested on Mycobacterium tuberculosis (assay: Antitubercular activity against rifampicin and isoniazid-resistant Mycobacterium tuberculosis isolate 2199 after 24 hrs by microplate alamar blue assay). Settings: isolate 2199, 24 h.
Assay type: functional

Point of comparison: `CSCCC(NC(=O)NC(Cc1c[nH]c2ccccc12)C(=O)O)C(=O)NC(C(=O)N/C=C1\C[C@@H](O)[C@H](n2ccc(=O)[nH]c2=O)O1)C(C)N(C)C(=O)C(N)Cc1cccc(O)c1` (some centres undefined) [SANSANMYCIN A], MIC 32 µg/mL (≈ 37 µM). Against it:
- CSCCC(NC(=O)NC(Cc1c[nH]c2ccccc12)C(=O)O)C(=O)NC(C(=O)N/C=C1\C[C@@H](O)[C@H](n2ccc(=O)[nH]c2=O)O1)C(C)N(C)C(=O)C(Cc1cccc(O)c1)NC(C)C (some centres undefined) — 4-fold lower, 8 µg/mL (≈ 8.83 µM)
- NNC(=O)c1ccncc1 [ISONIAZID] — within 1.5-fold, 40 µg/mL (≈ 292 µM)
- CO[C@H]1/C=C/O[C@@]2(C)Oc3c(C)c(O)c4c(O)c(c(/C=N/N5CCN(C)CC5)c(O)c4c3C2=O)NC(=O)/C(C)=C\C=C\[C@H](C)[C@H](O)[C@@H](C)[C@@H](O)[C@@H](C)[C@H](OC(C)=O)[C@@H]1C [RIFAMPIN] — 1.6-fold lower, 20 µg/mL (≈ 24.3 µM)
